Results from patent EP3057951B1, “METHYLENE LINKED QUINOLINYL MODULATORS OF ROR-GAMMA-T” (Janssen Pharmaceutica NV, priority 2013, dated 2015).
Where a name gives a salt, the structure may show the parent alone. Read-outs that look alike come from different tables or passages of the source.

Columns and labels:
[1] = target: T1, wild type human RORγt LBD (Homo sapiens, UniProt P51449); test: RORγt (LBD) Reporter Assay (GAL4-luciferase, HEK293T cells); format: cell-based; conditions: for RORγt (LBD) Reporter Assay, % inhibition @ 6 µM: 6 µM compound concentration; for inhibition at 6 µM: HEK-293T, read-out: RORγt (LBD) Reporter Assay, % inhibition @ 6 µM, 6 µM compound concentration
T1 construct: expressed in transfected cells; host or cells: HEK293T
T1 sequence (P51449 258-518): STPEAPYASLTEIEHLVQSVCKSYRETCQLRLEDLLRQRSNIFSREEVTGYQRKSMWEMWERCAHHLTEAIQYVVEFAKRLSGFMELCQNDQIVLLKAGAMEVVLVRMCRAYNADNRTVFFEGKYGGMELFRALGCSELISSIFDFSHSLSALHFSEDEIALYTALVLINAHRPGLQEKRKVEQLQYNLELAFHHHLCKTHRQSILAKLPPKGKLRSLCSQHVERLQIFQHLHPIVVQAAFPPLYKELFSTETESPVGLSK

[2] = target: T2, wild type human RORγt ligand binding domain (RORyt LBD) (Homo sapiens, UniProt P51449); test: RORγt ThermoFluor assay (thermal shift, binding affinity KD)
T2 construct: His-tag (N); TurboTEV protease cleavage site (ENLYFQG) (N); made in house; host or cells: E. coli (pHIS1, modified pET vector)
T2 sequence (P51449 258-518): T1 sequence (P51449 258-518)

[3] = HEK293T cells, value after the comma with ∼, > or < could not be included in the average

Compound | RORγt (LBD) Reporter Assay, % inhibition @ 6 µM [1] [%] | IC50 [1, 3] [nM] | Kd [2] [nM] | inhibition at 6 µM [1] [%] | IC50 ([1]; HEK293T cells) [nM] | inhibition at 6 µM ([1]; HEK293T cells) [%] | RORγt (LBD) Reporter Assay, % inhibition @ 6 µM ([1]; HEK293T cells) [%]
COc1c(Cc2ccccc2)c(C(F)(F)F)nc2ccc(C(O)(c3ccc(C(F)(F)F)nc3)c3cncn3C)cc12 (single isomer, unassigned) [Example 106c, (3-Benzyl-4-methoxy-2-(trifluoromethyl)quinolin-6-yl)(1-methyl-1H-imidazol-5-yl)(6-(trifluoromethyl)pyridin-3-yl)methanol] | 65 | ~5000 | 18 |  |  |  | 
COc1nc2ccc(C(O)(c3ccc(C)nc3C)c3cnnn3C)cc2c(Cl)c1Cc1ccc(-n2cccn2)cc1 (single isomer, unassigned) [Example 17c, (3-(4-(1H-Pyrazol-1-yl)benzyl)-4-chloro-2-methoxyquinolin-6-yl)(2,6-dimethylpyridin-3-yl)(1-methyl-1H-1,2,3-triazol-5-yl)methanol] | 101 | 9 | 0.29 |  |  |  | 
COc1nc2ccc(C(O)(c3ccc(C#N)cc3)c3cncn3C)cc2c(Cl)c1Cc1ccc(-n2cncn2)cc1 (single isomer, unassigned) [Example 14b, 4-((3-(4-(1H-1,2,4-Triazol-1-yl)benzyl)-4-chloro-2-methoxyquinolin-6-yl)(hydroxy)(1-methyl-1H-imidazol-5-yl)methyl)benzonitrile] |  | 120 | 140 | 105 |  |  | 
COc1nc2ccc(C(N)(c3ccc(C(F)(F)F)nc3)c3cncn3C)cc2c(Cl)c1Cc1cc2ccccc2s1 (single isomer, unassigned) [Example 71b, (3-(Benzo[b]thiophen-2-ylmethyl)-4-chloro-2-methoxyquinolin-6-yl)(1-methyl-1H-imidazol-5-yl)(6-(trifluoromethyl)pyridin-3-yl)methanamine] |  | 230 | 32 | 96 |  |  | 
COc1nc2ccc(C(O)(c3cc(C)nc(C)c3)c3cnnn3C)cc2c(Cl)c1Cc1ccc(C(F)(F)F)cc1 (single isomer, unassigned) [Example 84b, (4-Chloro-2-methoxy-3-(4-(trifluoromethyl)benzyl)quinolin-6-yl)(2,6-dimethylpyridin-4-yl)(1-methyl-1H-1,2,3-triazol-5-yl)methanol] |  | 210 | 180 | 103 |  |  | 
Cn1cncc1C(O)(c1ccc(Cl)cc1)c1ccc2nc(C(F)(F)F)c(Cc3ccccc3)c(C#N)c2c1 (stereo not drawn) [Example 103, 3-Benzyl-6-((4-chlorophenyl)(hydroxy)(1-methyl-1H-imidazol-5-yl)methyl)-2-(trifluoromethyl)quinoline-4-carbonitrile•TFA] |  | 33 | 9.4 | 81 |  |  | 
COc1nc2ccc(C(O)(c3cccnc3)c3ccc(Cl)c(Cl)c3)cc2c(Cl)c1Cc1ccc(-n2cccn2)cc1 (stereo not drawn) [Example 161a, (3-(4-(1H-Pyrazol-1-yl)benzyl)-4-chloro-2-methoxyquinolin-6-yl)(3,4-dichlorophenyl)(pyridin-3-yl)methanol] |  |  | 15 |  | 57 | 96 | 
COc1nc2ccc(C(O)(c3ccc(C)nc3C)c3cnnn3C)cc2c(C#N)c1Cc1ccc(C(F)(F)F)nc1 (single isomer, unassigned) [Example 41c, 6-((2,6-Dimethylpyridin-3-yl)(hydroxy)(1-methyl-1H-1,2,3-triazol-5-yl)methyl)-2-methoxy-3-((6-(trifluoromethyl)pyridin-3-yl)methyl)quinoline-4-carbonitrile] | 99 | 5.9 | 6.4 |  |  |  | 
COc1nc2ccc(C(O)(c3ccccc3)C3CCN(C(C)=O)CC3)cc2c(Cl)c1Cc1ccc(-n2cncn2)cc1 (stereo not drawn) [Example 18a, 1-(4-((3-(4-(1H-1,2,4-Triazol-1-yl)benzyl)4-chloro-2-methoxyquinolin-6-yl)(hydroxy)(phenyl)methyl)piperidin-1-yl)ethanone] |  | 46 | 14 | 99 |  |  | 
CON(C)c1nc2ccc(C(O)(c3ccc(C(F)(F)F)nc3)c3cncn3C)cc2c(N(C)OC)c1Cc1ccc(-n2cccn2)cc1 (stereo not drawn) [Example 129, {2,4-Bis[methoxy(methyl)amino]-3-[4-(1H-pyrazol-1-yl)benzyl]quinolin-6-yl}(1-methyl-1H-imidazol-5-yl)[6-(trifluoromethyl)pyridin-3-yl]methanol] |  |  | 1700 |  | 1500 | 110 | 
COc1ccc(C(O)(c2cccnc2)c2ccc3nc(OC)c(Cc4ccc(-n5cccn5)cc4)c(Cl)c3c2)cc1OC (single isomer, unassigned) [Example 159c, (3-(4-(1H-Pyrazol-1-yl)benzyl)-4-chloro-2-methoxyquinolin-6-yl)(3,4-dimethoxyphenyl)(pyridin-3-yl)methanol] |  |  | 14 |  | 51 |  | 105
COc1nc2ccc(C(O)(c3ccc(Cl)cc3)c3cncn3C)cc2c(C#N)c1Cc1ccc(C(F)(F)F)cc1 (racemic) [Example 55a, 6-((4-Chlorophenyl)(hydroxy)(1-methyl-1H-imidazol-5-yl)methyl)-2-methoxy-3-(4-(trifluoromethyl)benzyl)quinoline-4-carbonitrile] |  | 32 | 11 | 104 |  |  | 
Cc1ccc(C(O)(c2ccc3nc(N4CC(F)(F)C4)c(Cc4ccc(C(F)(F)F)cc4)c(Cl)c3c2)c2cnnn2C)c(C)n1 (single isomer, unassigned) [Example 148b, {4-Chloro-2-(3,3-difluoroazetidin-1-yl)-3-[4-(trifluoromethyl)benzyl]quinolin-6-yl}(2,6-dimethylpyridin-3-yl)(1-methyl-1H-1,2,3-triazol-5-yl)methanol] |  |  | 56 |  | 460 | 97 | 
Cc1ccc(C(O)(c2ccc3nc(Cl)c(Cc4ccc(C(F)(F)F)cc4)c(NC4CC4)c3c2)c2cnnn2C)c(C)n1 (single isomer, unassigned) [Example 144b, {2-Chloro-4-(cyclopropylamino)-3-[4-(trifluoromethyl)benzyl]quinolin-6-yl}(2,6-dimethylpyridin-3-yl)(1-methyl-1H-1,2,3-triazol-5-yl)methanol] |  |  | 2300 |  | ~3700 |  | 69
Cn1cncc1C(O)(c1ccc(Cl)cc1)c1ccc2nc(C(F)(F)F)c(Cc3ccccc3)c(O)c2c1 (stereo not drawn) [Example 102, 3-Benzyl-6-((4-chlorophenyl)(hydroxy)(1-methyl-1H-imidazol-5-yl)methyl)-2-(trifluoromethyl)quinolin4-ol•TFA] |  | 1900 | 1300 | 94 |  |  | 
COc1nc2ccc(C(O)(c3cnnn3C)c3cnc(C)n3C)cc2c(C#N)c1Cc1ccc(C(F)(F)F)nc1 (single isomer, unassigned) [Example 44b, 6-((1,2-Dimethyl-1H-imidazol-5-yl)(hydroxy)(1-methyl-1H-1,2,3-triazol-5-yl)methyl)-2-methoxy-3-((6-(trifluoromethyl)pyridin-3-yl)methyl)quinoline-4-carbonitrile] |  | 24 | 5.2 | 99 |  |  | 
CCc1nc2ccc(C(O)(c3cnnn3C)C3CN(C(C)=O)C3)cc2c(C#N)c1Cc1ccc(C(F)(F)F)cc1 (single isomer, unassigned) [Example 37, 6-((1-Acetylazetidin-3-yl)(hydroxy)(1-methyl-1H-1,2,3-triazol-5-yl)methyl)-2-ethyl-3-(4-(trifluoromethyl)benzyl)quinoline4-carbonitrile] |  |  | 1.9 |  |  |  | 
COc1nc2ccc(C(O)(c3ccccn3)c3cncn3C)cc2c(Cl)c1Cc1ccc(S(C)(=O)=O)cc1 (single isomer, unassigned) [Example 58c, (4-Chloro-2-methoxy-3-(4-(methylsulfonyl)benzyl)quinolin-6-yl)(1-methyl-1H-imidazol-5-yl)(pyridin-2-yl)methanol] |  |  | 370 |  |  |  | 
COc1nc2ccc(C(O)(c3ccc(C(F)(F)F)nc3)c3cnnn3C)cc2c(Cl)c1Cc1ccc(C(F)(F)F)cc1 (racemic) [Example 75a, (4-Chloro-2-methoxy-3-(4-(trifluoromethyl)benzyl)quinolin-6-yl)(1-methyl-1H-1,2,3-triazol-5-yl)(6-(trifluoromethyl)pyridin-3-yl)methanol] |  |  | 3.3 |  |  |  | 
COc1nc2ccc(C(O)(c3cnc(C)n3C)C3CCOCC3)cc2c(Cl)c1Cc1ccc(C(F)(F)F)cc1 (single isomer, unassigned) [Example 86b, (4-Chloro-2-methoxy-3-(4-(trifluoromethyl)benzyl)quinolin-6-yl)(1,2-dimethyl-1H-imidazol-5-yl)(tetrahydro-2H-pyran-4-yl)methanol] |  |  | 27 |  |  |  | 
CCc1nc2ccc(C(O)(c3cnc(C)n3C)c3cnc(C)n3C)cc2c(Cl)c1Cc1ccc(C(F)(F)F)cc1 [Example 4, (4-Chloro-2-ethyl-3-(4-(trifluoromethyl)benzyl)quinolin-6-yl)bis(1,2-dimethyl-1H-imidazol-5-yl)methanole•TFA] |  |  | 0.006 |  |  |  | 
CCc1nc2ccc(C(O)(c3cnnn3C)C3CCOCC3)cc2c(Cl)c1Cc1ccc(C(F)(F)F)cc1 (single isomer, unassigned) [Example 33b, (4-Chloro-2-ethyl-3-(4-(trifluoromethyl)benzyl)quinolin-6-yl)(1-methyl-1H-1,2,3-triazol-5-yl)(tetrahydro-2H-pyran-4-yl)methanol] |  |  | 0.08 |  |  |  | 
